Results from US6573258B2, “Photodynamic porphyrin antimicrobial agents” (Frontier Scientific, Inc., priority 2000, dated 2003).

Key:
E. coli cells [1] = assay: Dark toxicity of porphyrins on bacteria cells; type: cell-based, Escherichia coli; settings: 10 μM, 5 min incubation in the dark
Experimental: (§1) The toxic effects of T4MPyP and its analogues on E. coli and S. aureus cells were evaluated by measuring the extent of growth inhibition (bacteriostatic effect) and reduction of survival (cytocidal/bacteriocidal effect) following treatment with porphyrin in the dark or upon light exposure.
(§2) In all cases, 5 ml of the cell suspension (10^8-10^9 cells/ml) were incubated for 5 min in the dark at room temperature with the selected photosensitizer at concentrations ranging between 0.5 and 10 μM. After dark-incubation, some of the cell samples were irradiated with white light (150 mW/cm^2). During irradiation, (up to 30 min) the cells were kept at 37° C. and magnetically stirred. The treated and untreated control cells were diluted with BHI and maintained at 37° C. while the absorbance of the suspension at 650 nm was monitored at predetermined time periods for determining growth curves. The percent of growth inhibition in the treated cells was calculated by the following equation: […]
(§3) where AX, and AC are the absorbances measured after 3 h incubation, respectively, for the treated and control cell suspensions, respectively, while A0 represents the initial absorbance and the AC is that of the control cell suspension after 5 hours incubation. Cell survival was determined by plating serially diluted aliquots of treated and untreated cells on brain heart agar and counting the number of colonies after 18-24 h incubation at 37° C.

E. coli cells [2] = assay: Growth inhibition after 5 min incubation with porphyrin and white-light irradiation; type: cell-based, Escherichia coli; settings: for concentration photoinducing significant bacteriostatic and bactericidal action: both cell strains (S. aureus and E. coli)
Experimental: (§4) The abilities of various examples of the porphyrins of the instant invention to kill Gram-negative and Gram-positive bacteria were tested against that of T4MPyP. Each of the compounds was incubated with E. coli and S. aureus cells for 5 minutes, following which the samples were irradiated with white light for varying lengths of time.
(§5) Escherichia coli strain O4 (wild type), and methycillin-resistant Staphylococcus aureus, strain MRSA 110, were grown aerobically at 37° C. in brain heart infusion broth (BHI, Difco, Detroit, Mich.). The cells in the stationary phase of growth were harvested by centrifugation (2,000 g for 15 min) of the broth cultures, washed twice with 10 mM PBS at pH=7.4, containing 2.7 mM KCl and 0.14 M NaCl, and suspended in PBS at a density of 10^8-10^9 cells/ml (absorbance of about 0.7 at 650 nm). Aliquots of 5 ml of the cell suspension were incubated with 1 μM porphyrins for 5 min in the dark at room temperature. After incubation the suspensions were centrifuged and the cell pellets were collected immediately or washed with PBS and centrifuged again for one or three times.
as §1, §2, §3

[3] = Fluorescence quantum yields; type: physicochemical; settings: for ΦF (PBS), fluorescence quantum yield: in PBS; for ΦF (SDS), fluorescence quantum yield: in aqueous 2% SDS
Experimental: Ground-state absorption spectra of the porphyrins (ca. 5 μM in phosphate buffered saline (PBS, pH=7.4) were recorded with a Lambda 5 Perkin-Elmer spectrophotometer. Fluorescence spectra, corrected for the instrumental response, were recorded with a Perkin-Elmer (model LS) or a Spex (Fluorolog F112) spectrofluorimeter. Fluorescence quantum yields ((IF) of the porphyrin derivatives in PBS and in water containing 2% sodium dodecylsulfate (a detergent, hereinafter “SDS”) were determined by measuring the area of the emission spectrum (600-800 nm range, excitation at 560 nm) and using tetra-n-propylporphycene in toluene as a reference (ΦF=0.38). Braslavsky et al, J. Photochem. Photobiol. B: Biol., 40:191-198 (1997). In all cases, the absorbance of the sample and the reference solution were kept below 0.1 at the excitation wavelength to minimize inner filter effects.

E. coli cells [4] = assay: Decrease of cell survival (colony counting) after white-light irradiation; type: cell-based, Escherichia coli; settings: 1 μM porphyrin; for DECREASE OF SURVIVAL (log): 5 min dark incubation, 15 min white light (150 mW/cm^2)
Experimental: as §5, §1, §2, §3

[5] = Fluorescence decay times (phase-shift method); type: physicochemical; settings: ca. 5 μM, air-equilibrated buffer pH 7.4, λexc = 420 nm, λem > 600 nm; for A1, relative weight of fast component: dihydrochloride salt
Experimental: Fluorescence decay times of the porphyrin samples were measured by means of a Spex Fluorolog-τ2 spectrofluorimeter based on the phase-shift method. The frequency response curves (phase-shift and demodulation ratio vs. frequency) were globally analyzed.

S. aureus cells [6] = assay: Dark toxicity of porphyrins on bacteria cells; type: cell-based, Staphylococcus aureus; settings: 10 μM, 5 min incubation in the dark
Experimental: as §1, §2, §3

[7] = Photosensitized photooxidation of NATA; settings: 10 μM NATA; for ΦSDS × 10^3, quantum yield for photo-oxidation of NATA: aqueous 2% SDS; for ΦPBS × 10^3, quantum yield for photo-oxidation of NATA: phosphate buffered solution
Experimental: The photosensitizing activity of the various porphyrins was tested by measuring their efficiency in promoting the photooxidation of N-acetyl-L-tryptophanamide (NATA, Aldrich Chem. Co.) as a model biological substrate. Toward this aim, 10 μM NATA in PBS or in water containing 2% SDS was irradiated in the presence of 5 μM porphyrin. The irradiations were performed with 515±10 nm-light isolated by means of an interference filter (Balzers, Liechtenstein), while the solution (2 ml) was magnetically stirred in a quartz cuvette of 1-cm optical path and kept at 25° C. The photosensitized modification of NATA was followed by measuring the decrease in the intensity of its fluorescence emission spectrum (300-450 nm) upon excitation with 290 nm-light at various irradiation times. Plots of in F°/F (where F° and F represent the fluorescence intensity at time 0 and t, respectively) vs. the irradiation time allowed the first-order rate constants of the photo-process to be derived.
The intensity of the incident light was measured by using Aberchrome 999P in toluene as an actinometer. Heller, EPA Newslett., 29:49-60 (1987). This parameter was used to calculate the quantum yields of NATA photooxidation sensitized by the different porphyrins.

[8] = Triplet state properties by laser flash photolysis; type: physicochemical; settings: phosphate-buffered solution; for φT, triplet quantum yield: ε920 estimated by total depletion method
Experimental: Laser flash photolysis experiments were carried out by use of the setup previously described in Gomer, et al., with excitation wavelengths of 355 and 420 nm. Gorner, et al., Photoinduced electron transfer between styrylanthracenes and electron donors and acceptors in acetonitrile, J. Chem. Soc. Faraday Trans., vol. 88, pp. 29-34 (1992).
The transient spectra of the porphyrins in buffer solutions were recorded upon laser flash photolysis excitation at 355 and 420 nm. […] The decay (growth) of the signal (bleaching) occurred according to first-order kinetics and led to a complete recovery of the ground state with a lifetime of 91 μs. […] This also allowed the triplet quantum yield (φT) to be determined (see Table 3), after calibration of the experimental setup by use of an optically-matched solution of benzophenone in acetonitrile.

S. aureus cells [9] = assay: Growth inhibition after 5 min incubation with porphyrin and white-light irradiation; type: cell-based, Staphylococcus aureus
Experimental: as §4, §5, §1
[…] After dark-incubation, some of the cell samples were irradiated with white light (150 mW/cm^2). During irradiation, (up to 30 min) the cells were kept at 37° C. and magnetically stirred. The treated and untreated control cells were diluted with BHI and maintained at 37° C. while the absorbance of the suspension at 650 nm was monitored at predetermined time periods for determining growth curves. The percent of growth inhibition in the treated cells was calculated by the following equation:
as §3

[10] = 0.5 μM, incubated 5 min, white light 5 min
[11] = 0.5 μM, incubated 5 min, white light 10 min
[12] = Table 5: 0.5 μM, 5 min incubation, 5 min white light (150 mW/cm^2)
[13] = Table 5: 1 μM, 5 min incubation, 5 min white light (150 mW/cm^2)

| Structure (SMILES) | inhibition of bacterial cell growth in the dark (E. coli cells [1]) | Growth inhibition (%) E. coli (E. coli cells [2]; [10]) [%] | Growth inhibition (%) E. coli (E. coli cells [2]; [11]) [%] | Growth inhibition (%) E. coli (E. coli cells [2]; [12]) [%] | concentration photoinducing significant bacteriostatic and bactericidal action (E. coli cells [2]) | ΦF (PBS), fluorescence quantum yield [3] | ΦF (SDS), fluorescence quantum yield [3] | DECREASE OF SURVIVAL (log) (E. coli cells [4]) | A2, relative weight of slow component [5] [%] | τ1, fluorescence decay time of fast component [5] [ns] | τ2, fluorescence decay time of slow component [5] [ns] | A1, relative weight of fast component [5] [%] | inhibition of bacterial cell growth in the dark (S. aureus cells [6]) | ΦSDS × 10^3, quantum yield for photo-oxidation of NATA [7] | ΦPBS × 10^3, quantum yield for photo-oxidation of NATA [7] | λmax of transient spectrum [8] [nm] | λmin of transient spectrum [8] [nm] | φ×ε920 [8] [M⁻¹ cm⁻¹] | τ^N2, triplet lifetime [8] [μs] | τ^air, triplet lifetime [8] [μs] | further results |
| --- | --- | --- | --- | --- | --- | --- | --- | --- | --- | --- | --- | --- | --- | --- | --- | --- | --- | --- | --- | --- | --- |
| CCCCCCCCCCCCCC[n+]1ccc(-c2c3nc(c(-c4cc[n+](C)cc4)c4ccc([nH]4)c(-c4cc[n+](C)cc4)c4nc(c(-c5cc[n+](C)cc5)c5ccc2[nH]5)C=C4)C=C3)cc1.Cl.Cl.[Cl-].[Cl-].[Cl-].[Cl-] [Porphyrin C14, 5-(4-N-tetradecylpyridyl)-10,15,20-tris(4-N-methylpyridyl)-21H,23H-porphine tetrachloride dihydrochloride salt] | complete inhibition | 81.8 | 100 | 82 | ten-fold lower concentration | 0.019 | 0.022 | −4.35 ± 0.45 | 98 | 1.0 | 6.5 | 2 | complete inhibition | 0.71 ± 0.03 | 0.66 ± 0.10 | 480 | 425 | 9762 | 70 | 20 | drop in survival of E. coli cells (E. coli cells [4]; 15 min irradiation): 4 log; φT, triplet quantum yield [8]: 0.48; Growth inhibition (%) S. aureus (S. aureus cells [9]; [10]): 72.7%; Growth inhibition (%) S. aureus (S. aureus cells [9]; [11]): 88.9%; Growth inhibition (%) S. aureus (S. aureus cells [9]; [12]): 73% |
| CCCCCCCCCCCCCCCCCC[n+]1ccc(-c2c3nc(c(-c4cc[n+](C)cc4)c4ccc([nH]4)c(-c4cc[n+](C)cc4)c4nc(c(-c5cc[n+](C)cc5)c5ccc2[nH]5)C=C4)C=C3)cc1.Cl.Cl.[Cl-].[Cl-].[Cl-].[Cl-] [Porphyrin C18, 5-(4-N-octadecylpyridyl)-10,15,20-tris(4-N-methylpyridyl)-21H,23H-porphine tetrachloride dihydrochloride salt] | complete inhibition | 26 | 56.6 | 26 | ten-fold lower concentration | 0.022 | 0.024 | −2.78 ± 0.62 | 97 | 1.4 | 9.0 | 3 | complete inhibition | 0.80 ± 0.04 | 0.14 ± 0.01 | 470 | 420 | 2700 | 74 | 21 | Growth inhibition (%) E. coli (E. coli cells [2]; 1 μM, incubated 5 min, white light 5 min): 57.9%; Growth inhibition (%) E. coli (E. coli cells [2]; 1 μM, incubated 5 min, white light 10 min): 95.7%; Growth inhibition (%) E. coli (E. coli cells [2]; [13]): 58%; φT, triplet quantum yield [8]: 0.17; Growth inhibition (%) S. aureus (S. aureus cells [9]; 0.1 μM, incubated 5 min, white light 5 min): 12.7%; Growth inhibition (%) S. aureus (S. aureus cells [9]; 0.1 μM, incubated 5 min, white light 10 min): 20.2%; Growth inhibition (%) S. aureus (S. aureus cells [9]; [10]): 41.4%; Growth inhibition (%) S. aureus (S. aureus cells [9]; [11]): 58.1%; Growth inhibition (%) S. aureus (S. aureus cells [9]; [12]): 42%; Growth inhibition (%) S. aureus (S. aureus cells [9]; [13]): 59% |
